Patent US11066414B2, “Cot modulators and methods of use thereof” (Gilead Sciences, Inc., priority 2015, dated 2021)
Like-named read-outs stand apart in the source and are kept apart here.

Assays:
Human Cot = Human Cot (Homo sapiens (Human), UniProt P41279); test: High Throughput Cot Biochemical Assay
TNFα = test: Cot Monocyte TNFα Cell Based Assay
[1] = IC50 HTRF, Cot HTRF (TR-FRET) biochemical assay
[2] = Homo sapiens, Monocyte, read-out: EC50 TNF, LPS-stimulated human monocytes, TNFα
[3] = IC50 HTRF, Cot HTRF (TR-FRET KinEASE) biochemical assay, 400 μM ATP
[4] = Homo sapiens, Monocyte, read-out: EC50 TNF, LPS-stimulated human monocytes, TNFα TR-FRET

Sequence of Human Cot (P41279 30-397): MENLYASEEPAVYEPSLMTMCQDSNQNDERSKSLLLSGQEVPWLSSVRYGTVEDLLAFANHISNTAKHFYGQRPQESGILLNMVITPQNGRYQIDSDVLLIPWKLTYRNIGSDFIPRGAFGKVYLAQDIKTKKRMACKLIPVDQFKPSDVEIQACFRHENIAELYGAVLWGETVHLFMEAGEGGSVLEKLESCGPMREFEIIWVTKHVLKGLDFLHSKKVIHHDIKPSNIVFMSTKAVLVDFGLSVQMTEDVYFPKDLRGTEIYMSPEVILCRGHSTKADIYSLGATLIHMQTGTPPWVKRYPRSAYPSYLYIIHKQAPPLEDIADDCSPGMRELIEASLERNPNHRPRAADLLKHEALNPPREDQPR

| SMILES | IC50 (Human Cot; [1]) [nM] | EC50 (TNFα; [2]) [nM] | also measured |
| --- | --- | --- | --- |
| [2H]C([2H])([2H])C([2H])([2H])[C@@H](Nc1c(C#N)cnc2c(Cl)cc(N[C@@]([2H])(c3ccc(F)nc3)c3cn(C4CC4)nn3)cc12)c1ccccc1 [Example 106, 8-chloro-6-(((S)-(1-cyclopropyl-1H-1,2,3-triazol-4-yl)(6-fluoropyridin-3-yl)methyl-d)amino)-4-(((R)-1-phenylpropyl-2,2,3,3,3-d5)amino)-quinoline-3-carbonitrile] | 2 | 76 | – |
| Cc1nc(F)ccc1[C@H](Nc1cc(Cl)c2ncc(C#N)c(NCC(C)(C)C)c2c1)c1cn([C@@H](C)CF)nn1 [Example 546, 8-chloro-6-(((S)-(6-fluoro-2-methylpyridin-3-yl)(1-((S)-1-fluoropropan-2-yl)-1H-1,2,3-triazol-4-yl)methyl)amino)-4-(neopentylamino)quinoline-3-carbonitrile] | 2 | 42 | – |
| Cc1nc(F)ccc1[C@H](Nc1cc(Cl)c2ncc(C#N)c(N[C@@H]3CCOCC3(C)C)c2c1)c1cn(C2(C(F)F)CC2)nn1 [Example 539, 8-chloro-6-(((S)-(1-(1-(difluoromethyl)-cyclopropyl)-1H-1,2,3-triazol-4-yl)(6-fluoro-2-methylpyridin-3-yl)methyl)-amino)-4-(((R)-3,3-dimethyltetrahydro-2H-pyran-4-yl)amino)quinoline-3-carbonitrile] | 1 | 12 | – |
| N#Cc1cnc2c(Cl)cc(N[C@@H](c3cccnc3)c3cn(CCOCCO)nn3)cc2c1Nc1ccc(F)c(Cl)c1 [Example 341, (S)-8-chloro-4-((3-chloro-4-fluorophenyl)amino)-6-(((1-(2-(2-hydroxyethoxy)ethyl)-1H-1,2,3-triazol-4-yl)(pyridin-3-yl)methyl)-amino)quinoline-3-carbonitrile] | 6 | 843 | – |
| Cc1nc(F)ccc1[C@H](Nc1cc(Cl)c2ncc(C#N)c(NCC(C)(C)C)c2c1)c1cn(C2(C(=O)O)CC(F)(F)C2)nn1 [Example 624, (S)-1-(4-(((8-chloro-3-cyano-4-(neopentylamino)quinolin-6-yl)amino)(6-fluoro-2-methylpyridin-3-yl)methyl)-1H-1,2,3-triazol-1-yl)-3,3-difluorocyclobutane-1-carboxylic acid] | 11 | 1000 | – |
| N#Cc1cnc2c(Cl)cc(NC(c3cccnc3)c3cn(C4CCNCC4)nn3)cc2c1Nc1ccc(F)c(Cl)c1 (centres unmarked) [Example 405, 8-chloro-4-((3-chloro-4-fluoro-phenyl)amino)-6-(((1-(piperidin-4-yl)-1H-1,2,3-triazol-4-yl)(pyridin-3-yl)methyl)amino)quinoline-3-carbonitrile] | 2 | 1040 | – |
| COc1ccc(C(Nc2cc(Cl)c3ncc(C#N)c(NCC(C)(C)C)c3c2)c2cn(C3(C(F)(F)F)CC3)nn2)c(C)n1 (centres unmarked) [Example 978, 8-chloro-6-(((6-methoxy-2-methylpyridin-3-yl)(1-(1-(trifluoromethyl)cyclopropyl)-1H-1,2,3-triazol-4-yl)methyl)amino)-4-(neopentylamino)quinoline-3-carbonitrile] | – | – | IC50 (Human Cot; [3]): 9 nM; EC50 (TNFα; [4]): 303 nM |
| Cc1ncsc1[C@H](Nc1cc(Cl)c2ncc(C#N)c(Nc3ccc(F)c(Cl)c3)c2c1)c1cn(C(C)C)nn1 [Example 306, (R)-8-chloro-4-((3-chloro-4-fluorophenyl)amino)-6-(((1-isopropyl-1H-1,2,3-triazol-4-yl)(4-methylthiazol-5-yl)methyl)amino)quinoline-3-carbonitrile] | 6 | 202 | – |
| Cc1nc(F)ccc1[C@H](Nc1cc(Cl)c2ncc(C#N)c(NCC(C)(C)C)c2c1)c1cn(C(C)(C)CF)nn1 [Example 531, (S)-8-chloro-6-(((1-(1-fluoro-2-methyl-propan-2-yl)-1H-1,2,3-triazol-4-yl)(6-fluoro-2-methylpyridin-3-yl)methyl)amino)-4-(neopentylamino)quinoline-3-carbonitrile] | 3 | 70 | – |
| [2H][C@](Nc1cc(Cl)c2ncc(C#N)c(Nc3cnc(F)c(F)c3)c2c1)(c1cccnc1)c1cn(-c2ccccc2)nn1 [Example 162, (S)-8-chloro-4-((5,6-difluoropyridin-3-yl)amino)-6-(((1-phenyl-1H-1,2,3-triazol-4-yl)(pyridin-3-yl)methyl-d)amino)quinoline-3-carbonitrile] | 7 | 429 | – |
| COc1nccc2c([C@H](Nc3cc(Cl)c4ncc(C#N)c(NCC(C)(C)C)c4c3)c3cn(C4(C(F)(F)F)CC4)nn3)cccc12 [Example 929, (S)-8-chloro-6-(((1-methoxylsoquinolin-5-yl)(1-(1-(trifluoromethyl)cyclopropyl)-1H-1,2,3-triazol-4-yl)methyl)amino)-4-(neopentylamino)quinoline-3-carbonitrile] | – | – | IC50 (Human Cot; read-out: IC50 HTRF, Cot HTRF (TR-FRET KinEASE) biochemical assay, 400 μM ATP): 11 nM; EC50 (TNFα; read-out: EC50 TNF, LPS-stimulated human monocytes, TNFα TR-FRET): 157 nM |
| Cc1nc(F)ccc1[C@H](Nc1cc(F)c2ncc(C#N)c(NCC(C)(C)C)c2c1)c1cn(C2(C(N)=O)CCC2)nn1 [Example 487, (S)-1-(4-(((3-cyano-8-fluoro-4-(neopentyl-amino)quinolin-6-yl)amino)(6-fluoro-2-methylpyridin-3-yl)methyl)-1H-1,2,3-triazol-1-yl)cyclobutane-1-carboxamide] | 1 | 245 | – |
| CC(C)(C)CNc1c(C#N)cnc2c(Cl)cc(N[C@H](c3cn(C4(C(F)F)CC4)nn3)c3cccc4c(=O)n(CC(F)F)ccc34)cc12 [Example 743, (S)-8-chloro-6-(((2-(2,2-difluoroethyl)-1-oxo-1,2-dihydroisoquinolin-5-yl)(1-(1-(difluoromethyl)cyclopropyl)-1H-1,2,3-triazol-4-yl)methyl)amino)-4-(neopentylamino)quinoline-3-carbonitrile] | 5 | 116 | – |
| CC(C)(C)CNc1c(C#N)cnc2c(Br)cc(N[C@H](c3cn(C4(C(N)=O)CC4)nn3)c3cccc4ncsc34)cc12 [Example 408, (S)-1-(4-(benzo[d]thiazol-7-yl((8-bromo-3-cyano-4-(neopentylamino)-quinolin-6-yl)amino)methyl)-1H-1,2,3-triazol-1-yl)cyclopropane-1-carboxamide] | 1 | 88 | – |
| Cc1nc(F)ccc1[C@H](Nc1cc(Cl)c2ncc(C#N)c(NCC(C)(C)C)c2c1)c1cn(C(C)(C)C)nn1 [Example 530, (S)-6-(((1-(tert-butyl)-1H-1,2,3-triazol-4-yl)(6-fluoro-2-methylpyridin-3-yl)methyl- )amino)-8-chloro-4-(neopentylamino)-quinoline-3-carbonitrile] | – | – | IC50 (Human Cot; read-out: IC50 HTRF, Cot HTRF (TR-FRET) biochemical assay): 3 nM; EC50 (TNFα; read-out: EC50 TNF, LPS-stimulated human monocytes, TNFα): 70 nM |
| CC(C)(C)CNc1c(C#N)cnc2c(Cl)cc(N[C@H](c3cn(C4(C(F)(F)F)CC4)nn3)c3cccc4[nH]c(C(F)(F)F)nc34)cc12 [Example 972, (S)-8-chloro-4-(neopentylamino)-6-(((2-(trifluoromethyl)-1H-benzo[d]imidazol-4-yl)(1-(1-(trifluoromethyl)cyclopropyl)-1H-1,2,3-triazol-4-yl)methyl)amino)quinoline-3-carbonitrile] | – | – | IC50 (Human Cot; [3]): 1820 nM; EC50 (TNFα; [4]): 1000 nM |
| [2H][C@@](Nc1cc(Cl)c2ncc(C#N)c(NCC(C)(C)C)c2c1)(c1cn(C2CC2)nn1)c1cccnc1N(C)C [Example 650, (S)-8-chloro-6-(((1-cyclopropyl-1H-1,2,3-triazol-4-yl)(2-(dimethylamino)pyridin-3-yl)methyl-d)amino)-4-(neopentylamino)quinoline-3-carbonitrile] | 179 | 1000 | – |
| CC(C)(C)CNc1c(C#N)cnc2c(Cl)cc(N[C@H](c3cn(C4(C(F)(F)F)CC4)nn3)c3ccc(Cl)c4ncccc34)cc12 [Example 921, (S)-8-chloro-6-(((8-chloroquinolin-5-yl)(1-(1-(trifluoromethyl)cyclopropyl)-1H-1,2,3-triazol-4-yl)methyl)amino)-4-(neopentylamino)quinoline-3-carbonitrile] | – | – | IC50 (Human Cot; [3]): 17 nM; EC50 (TNFα; [4]): 187 nM |
| N#Cc1cnc2c(Cl)cc(N[C@@H](c3cccnc3)c3cn(C4COC4)nn3)cc2c1Nc1cccc(Cl)c1 [Example 196, (S)-8-chloro-4-((3-chlorophenyl)amino)-6-(((1-(oxetan-3-yl)-1H-1,2,3-triazol-4-yl)(pyridin-3-yl)methyl)amino)quinoline-3-carbonitrile] | 6 | 668 | – |
| [2H]C([2H])([2H])n1ccc2c([C@H](Nc3cc(Cl)c4ncc(C#N)c(NCC(C)(C)C)c4c3)c3cn(C45CC(C4)C5)nn3)cccc2c1=O [Example 711, (S)-6-(((1-(bicyclo[1.1.1]pentan-1-yl)-1H-1,2,3-triazol-4-yl)(2-(methyl-d3)-1-oxo-1,2-dihydroisoquinolin-5-yl)methyl)amino)-8-chloro-4-(neopentylamino)quinoline-3-carbonitrile] | 2 | 32 | – |
| N#Cc1cnc2c(Cl)cc(N[C@@H](c3cccnc3)c3cn(CCCN4CCCC4)nn3)cc2c1Nc1cnc(F)c(F)c1 [Example 200, (S)-8-chloro-4-((5,6-difluoropyridin-3-yl)amino)-6-((pyridin-3-yl(1-(3-(pyrrolidin-1-yl)propyl)-1H-1,2,3-triazol-4-yl)methyl)amino)quinoline-3-carbonitrile] | 7 | 558 | – |
| CC(C)(C)CNc1c(C#N)cnc2c(F)cc(N[C@H](c3cn(C4(C(N)=O)CCC4)nn3)c3cccc4ncsc34)cc12 [Example 481, (S)-1-(4-(benzo[d]thiazol-7-yl((3-cyano-8-fluoro-4-(neopentylamino)quinolin-6-yl)-amino)methyl)-1H-1,2,3-triazol-1-yl)cyclobutane-1-carboxamide] | 6 | 391 | – |
